Experimental data: US10125095B2, “Abscisic acid derivative” (NATIONAL UNIVERSITY CORPORATION SHIZUOKA UNIVERSITY, priority 2014, dated 2018)

Experiments:
HAB1 = biological target: T1, HAB1 (Arabidopsis thaliana, UniProt Q9CAJ0); experiment: Protein dephosphorylation enzyme activity test, no receptor; assay type: biochemical, thale cress; settings: control = 100%
T1 construct: GST (N); made in house; host or cells: Escherichia coli BL21(DE3)pLysS
T1 sequence (Q9CAJ0 23-511): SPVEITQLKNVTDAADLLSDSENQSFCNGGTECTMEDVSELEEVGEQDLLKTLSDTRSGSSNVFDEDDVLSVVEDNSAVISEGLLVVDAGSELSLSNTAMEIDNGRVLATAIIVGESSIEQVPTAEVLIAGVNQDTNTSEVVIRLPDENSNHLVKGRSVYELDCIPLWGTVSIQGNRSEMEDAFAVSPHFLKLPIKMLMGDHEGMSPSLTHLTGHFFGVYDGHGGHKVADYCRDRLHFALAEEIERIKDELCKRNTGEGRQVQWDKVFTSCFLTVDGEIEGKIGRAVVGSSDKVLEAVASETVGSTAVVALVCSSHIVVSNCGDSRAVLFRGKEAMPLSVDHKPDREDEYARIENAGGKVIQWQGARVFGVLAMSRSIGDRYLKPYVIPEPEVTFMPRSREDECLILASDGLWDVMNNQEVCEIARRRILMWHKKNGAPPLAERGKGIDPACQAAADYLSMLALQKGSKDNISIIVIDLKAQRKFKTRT
Method: (§1) A plasmid (pGex-2T-GST-HAB1 or pET28-6×His-PYL) encoded with PYR/PYL/RCAR proteins (PYL, abscisic acid receptor) or protein dephosphorylation enzyme HAB1 of thale cress was transformed to Escherichia coli (HAB1:BL21(DE3)pLysS, PYL:BL21-codonplus(DE3)-RIPL). Isopropyl-β-thiogalactopyranoside was added to the culture broth, which had been subjected to pre-culture (30° C., 180 rpm, 15 hours) and main culture (30° C., 180 rpm, 4 hours), and the protein-expressed (16° C., 150 rpm, 18 hours) crude enzyme solution was purified using FPLC thereby preparing the recombined PYL (PYR1, PYL1-6, PYL8-10) and HAB1. β-Mercaptoethanol, a manganese chloride aqueous solution, HAB1, PYL, a solution of the sample in dimethylsulfoxide and ultrapure water were sequentially added to a 96-well plate, allowed to stand at 22° C. for 30 minutes. Subsequently p-nitrophenylphosphate, which is the artificial substrate of HAB1, was added thereto to start the reaction, and the plate was placed in a microplate reader (TECAN, Infinite™ N200 NanoQuant). The absorbance at 405 nm due to p-nitrophenol, which is the hydrolysate of p-nitrophenylphosphate, was measured 3 minutes later from the reaction initiation, and HAB1 activity was calculated by the following formula (2). Note that the fraction to which only dimethylsulfoxide was added was considered to be the control and the activity thereof was defined as 100%. […] HAB1 specific activity (%)=Absorbance when sample was added/Absorbance of control×100 (2)

PYL6 = biological target: T2, PYL6 (Arabidopsis thaliana, UniProt Q8S8E3); experiment: Protein dephosphorylation enzyme activity test, PYL6; assay type: biochemical, thale cress; settings: control = 100%
T2 construct: 6xHis (N); made in house; host or cells: Escherichia coli BL21-codonplus(DE3)-RIPL (PYL); BL21(DE3)pLysS (HAB1)
T2 sequence (Q8S8E3 1-215): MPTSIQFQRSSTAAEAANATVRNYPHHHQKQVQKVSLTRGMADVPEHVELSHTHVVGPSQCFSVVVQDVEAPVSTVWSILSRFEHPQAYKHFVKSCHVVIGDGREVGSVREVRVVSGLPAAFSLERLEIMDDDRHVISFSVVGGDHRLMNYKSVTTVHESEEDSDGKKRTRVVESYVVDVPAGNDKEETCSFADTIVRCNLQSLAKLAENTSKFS
Method: as §1

PYL3 = biological target: T3, PYL3 (Arabidopsis thaliana, UniProt Q9SSM7); experiment: Protein dephosphorylation enzyme activity test, PYL3; assay type: biochemical, thale cress; settings: control = 100%
T3 construct: 6xHis (N); made in house; host or cells: Escherichia coli BL21-codonplus(DE3)-RIPL (PYL); BL21(DE3)pLysS (HAB1)
T3 sequence (Q9SSM7 1-209): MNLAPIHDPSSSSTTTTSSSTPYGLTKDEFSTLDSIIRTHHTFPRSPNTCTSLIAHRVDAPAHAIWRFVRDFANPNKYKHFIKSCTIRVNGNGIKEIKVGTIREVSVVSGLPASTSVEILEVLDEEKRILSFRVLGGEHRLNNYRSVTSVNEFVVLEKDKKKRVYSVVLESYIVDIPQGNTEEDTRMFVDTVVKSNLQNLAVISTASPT
Method: as §1

recombined PYL5 = biological target: T4, recombined PYL5 (Arabidopsis thaliana, UniProt Q9FLB1); experiment: Bonding affinity measurement using an isothermal titration calorimeter; assay type: binding, thale cress; settings: ITC, 20° C., sodium phosphate buffer
T4 construct: 6xHis (N); made in house; host or cells: Escherichia coli BL21-codonplus(DE3)-RIPL
T4 sequence (Q9FLB1 1-203): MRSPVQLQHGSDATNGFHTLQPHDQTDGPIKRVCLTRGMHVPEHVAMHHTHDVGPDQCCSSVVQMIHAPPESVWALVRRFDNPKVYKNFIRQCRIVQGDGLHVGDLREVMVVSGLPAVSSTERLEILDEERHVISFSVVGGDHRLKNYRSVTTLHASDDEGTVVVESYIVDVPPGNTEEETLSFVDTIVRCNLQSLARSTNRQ
Method: A sodium phosphate buffer solution of a recombined PYL5 was prepared in the same procedure as in Test Example 5, and put in a reaction cell of an isothermal titration calorimeter (GE Healthcare, MicroCal iTC200), and a sodium phosphate buffer solution of the compound of Example 1 was put in the syringe. Then, the calorimeter was set to 20° C. and the measurement was carded out. The same measurement as above was also carried out for the compounds of Examples 7 to 9.

PYL8 = biological target: T5, PYL8 (Arabidopsis thaliana, UniProt Q9FGM1); experiment: Protein dephosphorylation enzyme activity test, PYL8; assay type: biochemical, thale cress; settings: control = 100%
T5 construct: 6xHis (N); made in house; host or cells: Escherichia coli BL21-codonplus(DE3)-RIPL (PYL); BL21(DE3)pLysS (HAB1)
T5 sequence (Q9FGM1 1-188): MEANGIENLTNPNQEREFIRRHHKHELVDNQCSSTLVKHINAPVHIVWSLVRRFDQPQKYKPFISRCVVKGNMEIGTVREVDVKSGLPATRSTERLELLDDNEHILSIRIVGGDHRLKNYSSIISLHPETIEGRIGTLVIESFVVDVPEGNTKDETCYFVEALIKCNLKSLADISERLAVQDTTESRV
Method: as §1

PYL1 = biological target: T6, PYL1 (Arabidopsis thaliana, UniProt Q8VZS8); experiment: Protein dephosphorylation enzyme activity test, PYL1; assay type: biochemical, thale cress; settings: control = 100%
T6 construct: 6xHis (N); made in house; host or cells: Escherichia coli BL21-codonplus(DE3)-RIPL (PYL); BL21(DE3)pLysS (HAB1)
T6 sequence (Q8VZS8 1-221): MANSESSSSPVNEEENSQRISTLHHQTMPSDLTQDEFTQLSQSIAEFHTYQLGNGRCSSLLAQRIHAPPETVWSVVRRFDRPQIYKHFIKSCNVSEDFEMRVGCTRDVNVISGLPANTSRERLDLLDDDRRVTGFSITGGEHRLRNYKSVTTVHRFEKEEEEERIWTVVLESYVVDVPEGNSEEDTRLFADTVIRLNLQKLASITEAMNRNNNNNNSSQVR
Method: as §1

HAB1 Specific activity (%) PYL6 (PYL6; sample alone) [%] | HAB1 Specific activity (%) PYL3 (PYL3; sample alone) [%] | Kd (recombined PYL5) [µM] | ΔG (recombined PYL5) [kcal/mol] | ΔH (recombined PYL5) [kcal/mol] | −TΔS (recombined PYL5) [kcal/mol] | HAB1 Specific activity (%) PYL8 (PYL8; sample alone) [%] | HAB1 Specific activity (%) PYL1 (PYL1; sample alone) [%] | HAB1 Specific activity (%) None (HAB1; ABA + compound) [%] | HAB1 Specific activity (%) PYL6 (PYL6; ABA + compound) [%] | HAB1 Specific activity (%) PYL3 (PYL3; ABA + compound) [%] | HAB1 Specific activity (%) PYL8 (PYL8; ABA + compound) [%] | HAB1 Specific activity (%) PYL1 (PYL1; ABA + compound) [%] | Compound | HAB1 Specific activity (%) None (HAB1; sample alone) [%]
122 | 88.6 | 0.07 ± 0.02 | -9.6 ± 0.1 | -7.9 ± 0.1 | -1.7 | 105 | 98.1 | 81 | 87.6 | 49.2 | 76.9 | 55.6 | CC1=C[C@@H](OCC#Cc2ccccc2)CC(C)(C)[C@@]1(O)/C=C/C(C)=C\C(=O)O [Example 1, (2Z,4E)-5-((1S,4S)-1-hydroxy-2,6,6-trimethyl-4-((3-phenylprop-2-yn-1-yl)oxy)cyclohex-2-en-1-yl)-3-methylpenta-2,4-dienoic acid] | 83.8
93.5 | 121 | 0.07 ± 0.02 | -9.6 ± 0.2 | -5.5 ± 0.1 | -4.2 | 98.5 | 136 |  | 61.0 | 61 | 98.7 | 87.7 | CC1=C[C@@H](OCC#Cc2ccc(C)cc2)CC(C)(C)[C@@]1(O)/C=C/C(C)=C\C(=O)O [Example 7] | 

Compound | HAB1 Specific activity (%) PYL6 (PYL6; sample alone) [%] | HAB1 Specific activity (%) PYL3 (PYL3; sample alone) [%] | Kd (recombined PYL5) [µM] | ΔG (recombined PYL5) [kcal/mol] | ΔH (recombined PYL5) [kcal/mol] | −TΔS (recombined PYL5) [kcal/mol] | HAB1 Specific activity (%) PYL8 (PYL8; sample alone) [%] | HAB1 Specific activity (%) PYL1 (PYL1; sample alone) [%] | HAB1 Specific activity (%) None (HAB1; ABA + compound) [%] | HAB1 Specific activity (%) PYL6 (PYL6; ABA + compound) [%] | HAB1 Specific activity (%) PYL3 (PYL3; ABA + compound) [%] | HAB1 Specific activity (%) PYL8 (PYL8; ABA + compound) [%] | HAB1 Specific activity (%) PYL1 (PYL1; ABA + compound) [%] | HAB1 Specific activity (%) None (HAB1; sample alone) [%]
CC1=CC(=O)CC(C)(C)[C@@]1(O)/C=C/C(C)=C\C(=O)O [ABA, abscisic acid] | 19.5 | 16.8 | 0.88 ± 0.11 | -8.1 ± 0.1 | -7.8 ± 0.1 | -0.3 | 13.9 | 18.6 |  |  |  |  |  | 97
